Results as given in patent US20120237567A1, “MODULATING LYMPHATIC FUNCTION” (THE GENERAL HOSPITAL CORPORATION, priority 2004, published 2012).

Experiments:
[1] = tested on: mouse tail lymphatic network (initial lymphatics); assay: Mouse tail microlymphangiography with residence time distribution (RTD) analysis of lymphatic function; assay type: in vivo, mice (C57BL/6); conditions: for overall lymphatic fluid velocity in the dermal lymphatic network: collecting lymphatics not ligated
Description: Studies were carried out in 7-10 week old female C57BL/6 and nude mice. Forty-eight mice were used for these experiments: sixteen for the inhibition experiments, fifteen for the ligation experiment, and seventeen additional controls. All procedures were carried out following the guidelines of the Institutional Animal Care and Use Committee of the Massachusetts General Hospital.
Mice in the experimental groups 5 and 6 underwent ligation of the deep collecting lymphatic vessels of the tail immediately before the microlymphangiography, to avoid development of edema (FIG. 1). Mice were anesthetized intramuscularly (90 mg/kg Ketamine and 9 mg/kg Xylazine) and placed on a heated surgical microscopy table. The translucent deep collecting lymphatic vessels were separated from the tail veins with microsurgical forceps through small, bilateral incisions in the axial direction, and ligated with a 10-O non-absorbable suture (Prolene, Ethicon, N.J., United States). The incision site was closed with surgical glue, taking care to avoid circumferential tension on the tail that could interfere with superficial lymphatic function.
Fluorescence intensity measurements were carried out using RTD analysis as described previously (Swartz et al., Am J Physiol. 1996, 270:H324-H329). Briefly, mice were anesthetized intramuscularly (90 mg/kg Ketamine and 9 mg/kg Xylazine) and placed on a small plate. 2.5% FITC-dextran (MW=2 million; Sigma, St. Louis, Mo.) in PBS was infused into the interstitial tissue of the tail tip, with a constant pressure of 40 cm H2O via a 30-gauge needle. […] The mouse was transferred to an epifluorescence microscopy setup as described previously (Leu et al., Am J Physiol. 1994, 267:H1507-H1513). […] The temporally consecutive fluorescent images were analyzed offline using NIH Image Analysis software. The average fluorescence intensity was determined for each image, and used to calculate the mean residence time for each region, the overall lymph fluid velocity in the tail lymphatic network, and the mean LV diameter.

[2] = design: species or system C57BL/6 mice; conditions: mouse, in vivo
Description: 8 week old, female C57BL/6 mice were weighed and anesthetized (90 mg/kg Ketamine and 9 mg/kg Xylazine). Mean arterial pressure (MAP) was measured by cannulating the exposed left carotid artery with a PE-10 intravascular polyethylene catheter, connected to a pressure transducer (Gould Inc, Valley View, Ohio).

[3] = 3 days of treatment, not ligated, mean±SE
[4] = after ligation of the collecting lymphatics, 3 days of treatment, mean±SE

Compound | overall lymphatic fluid velocity in the dermal lymphatic network ([1]; 3 days of treatment, mean±SE) | injection rate of the fluorescent tracer into the interstitium [1, 3] | mean lymphatic vessel diameter [1, 3] | decrease of overall lymphatic fluid velocity compared to controls that had received D-NMMA ([1]; 3 days of L-NMMA treatment, not ligated) | injection rate [1, 4] | mean lymphatic vessel diameter [1, 4] | lymphatic fluid velocity compared with controls treated with D-NMMA or AP (FIG. 2A) ([1]; not ligated, result in words) | mean lymphatic vessel diameter compared with controls (FIG. 2C) ([1]; not ligated, result in words) | MAP (mean arterial pressure) [2]
CN=C(N)NCCC[C@@H](N)C(=O)O [D-NMMA] | 8.7±0.4 μm/s | 15.7 ± 1.5 nL/min | 61.6±1.6 μm |  |  |  |  |  | 
CNC(=N)NCCC[C@H](N)C(=O)O [L-NMMA, NG-monomethyl-L-arginine] | 5.1±0.6 μm/s | 11.3 ± 1.2 nL/min | 61.5±0.7 μm | 42% | 25.0 ± 1.3 nL/min | 77.2±2.1 μm | significantly lower | not different | 71.7±1.4 mmHg
